Experimental data reported in ChEMBL document CHEMBL3997792, “Identification of the First Selective Activin Receptor-Like Kinase 1 Inhibitor, a Reversible Version of L-783277” (J Med Chem, 2017).
pIC50: −log10 of the molar value. Calls of active or inactive are those of the source. The rule behind the calls is not given here.

Assays:
[1] = molecular target: T1, Activin receptor type-1-like (Mus musculus) (UniProt Q61288); test: Inhibition of BMP9-stimulated ALK1 in mouse C2C12 cells assessed as reduction in Smad1/5 phosphorylation at 10 uM pretreated for 2 hrs followed by BMP9-stimulation after 30 mins by western blot analysis relative to control; assay type: cell-based
T1 sequence (whole entry): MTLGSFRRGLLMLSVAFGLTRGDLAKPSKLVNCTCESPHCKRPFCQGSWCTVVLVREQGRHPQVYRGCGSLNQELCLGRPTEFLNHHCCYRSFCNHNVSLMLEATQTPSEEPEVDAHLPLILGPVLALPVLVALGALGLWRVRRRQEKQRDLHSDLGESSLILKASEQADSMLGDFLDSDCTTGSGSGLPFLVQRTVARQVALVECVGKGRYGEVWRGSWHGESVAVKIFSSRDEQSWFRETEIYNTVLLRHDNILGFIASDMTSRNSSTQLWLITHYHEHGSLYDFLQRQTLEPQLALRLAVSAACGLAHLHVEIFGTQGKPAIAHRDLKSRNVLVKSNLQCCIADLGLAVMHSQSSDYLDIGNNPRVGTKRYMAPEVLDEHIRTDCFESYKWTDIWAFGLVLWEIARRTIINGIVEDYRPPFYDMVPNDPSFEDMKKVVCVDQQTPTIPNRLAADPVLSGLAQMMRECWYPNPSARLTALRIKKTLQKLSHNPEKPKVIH

[2] = molecular target: Activin receptor type-1-like (Homo sapiens, UniProt P37023); test: Inhibition of human ALK1 using casein as substrate in presence of [gamma-33P]-ATP by scintillation counting method
Sequence of Activin receptor type-1-like (P37023 whole entry): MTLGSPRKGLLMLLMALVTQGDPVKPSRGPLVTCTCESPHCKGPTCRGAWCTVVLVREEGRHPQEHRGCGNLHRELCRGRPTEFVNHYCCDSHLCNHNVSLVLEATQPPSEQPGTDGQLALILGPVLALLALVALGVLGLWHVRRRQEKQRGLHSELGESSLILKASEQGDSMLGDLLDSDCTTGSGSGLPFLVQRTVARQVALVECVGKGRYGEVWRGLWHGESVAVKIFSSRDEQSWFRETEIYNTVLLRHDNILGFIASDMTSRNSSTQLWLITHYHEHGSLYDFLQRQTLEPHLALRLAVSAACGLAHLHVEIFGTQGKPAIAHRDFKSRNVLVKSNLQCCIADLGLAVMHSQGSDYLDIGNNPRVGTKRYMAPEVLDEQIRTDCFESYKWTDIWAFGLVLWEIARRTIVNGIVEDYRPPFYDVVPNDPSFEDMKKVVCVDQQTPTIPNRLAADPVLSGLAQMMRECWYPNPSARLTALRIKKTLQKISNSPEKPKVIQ

inhibition [1]: Active
pIC50 [2]: 5.75
SMILES: COc1cc(O)c2c(c1)CCC[C@H](O)[C@H](O)[C@H](O)CCC[C@H](C)OC2=O
